The values below come from US20090176794A1, “1H-INDOL-1-YL-UREA COMPOUNDS” (LES LABORATOIRES SERVIER, priority 2008, published 2009).

SMILES strings stand for the structures.

For data set [1], the system named is tyrosine hydroxylase (TH) protein in the locus coeruleus (LC). Description: Induction of tyrosine hydroxylase in the locus coeruleus after i.p. injection. To be noted: i.p. 20 mg/kg, three days after single injection, Balb/C mouse; for amount of TH in LC section 1, relative to the mean value of the control group: LC section 1 (anterior-to-posterior). The format is in vivo. The text has this:
A search is made among the compounds for those which are capable of bringing about an increase in the tyrosine hydroxylase (TH) protein in the locus coeruleus (LC) of the brain of the Balb/C mouse.
The animals used are male mice of the pure Balb/C strain (Charles River Laboratories) aged from 7 to 8 weeks at the time of treatment.
The mice are given a single injection, by the intraperitoneal route, of the compound under test, dissolved in 0.04M HCl solution (corresponding control: […]), if the compound is sufficiently soluble, or in olive oil 90%/DMSO 10% (corresponding control: olive oil 90%/DMSO 10%) for compounds that are insoluble in an aqueous medium.
Three days after the injection of each compound, all the animals are sacrificed by decapitation. The brains are removed and then frozen in liquid nitrogen and stored at −80° C.
Coronal sections 8 microns thick are taken along the posterior-anterior axis of the LC and fixed. The sections are transferred onto Immobilon-P membranes. The TH is measured by immunodetection and image analysis.

Data set [2] can be described thus: Predicted metabolic stability, mouse hepatic microsomes. The class given is in vitro ADME. As to conditions: mouse hepatic microsomes 0.33 mg prot/ml; compound 10^-7 M; NADPH; 0-60 min. Here is the method: (§1) The predicted metabolic stability is tested by incubation of the compounds at a concentration of 10^−7M in the presence of mouse, rat or human hepatic microsomes (0.33 mg of prot/ml). After addition of NADPH (nicotinamide adenine dinucleotide phosphate, reduced form), samples are taken at 0, 5, 15, 30 and 60 minutes. The enzymatic reaction is stopped using methanol (V/V). The protein is precipitated by centrifugation and the supernatant is analysed by LC-MS-MS.

Data set [3] in a line: Predicted metabolic stability, rat hepatic microsomes. The class given is in vitro ADME. To be noted: rat hepatic microsomes 0.33 mg prot/ml; compound 10^-7 M; NADPH; 0-60 min. The method, then:
as §1

The nature of data set [4]: Predicted metabolic stability, human hepatic microsomes. The class given is in vitro ADME. To be noted: human hepatic microsomes 0.33 mg prot/ml; compound 10^-7 M; NADPH; 0-60 min. The method, then: as §1
Data set [5] has as its system confluent endothelial cells from bovine capillaries. The experiment in a line: Predicted crossing of the blood-brain barrier (BBB). The class given is in vitro ADME. On the set-up: key: high; intermediate; low. As to conditions: 20 μM in upper compartment; filter with bovine capillary endothelial cells; 10-60 min. The method, then: The substances are incubated at 20 μM in the upper compartment of a double container, the upper compartment being separated from the lower compartment either solely by a polycarbonate filter or by the same filter covered with confluent endothelial cells from bovine capillaries. Evaluation of the permeability kinetics is carried out by means of LC-MS-MS quantification of the unchanged substance in the lower compartment after 10, 20, 30, 40 and 60 minutes.

The target in data set [6] is T1, ERK1 (Homo sapiens, UniProt P27361). Description: Biacore direct interaction with recombinant ERK1. The format is binding. The text has this:
(§2) Various forms of non-phosphorylated recombinant ERK (ERK1 and ERK2) and of phosphorylated recombinant ERK (p-ERK1 and p-ERK2) are fixed separately on “chips” and studied in the Biacore® system. The direct interaction of the compound of Example 1 at different concentrations is studied. • 2. Results
Background: Surface plasmon resonance follows binding to a sensor surface in real time, without labels.

Data set [7] deals with T2, ERK2 (Homo sapiens, UniProt P28482). The experiment in a line: Biacore direct interaction with recombinant ERK2. The class given is binding.
From the text: as §2

In data set [8] the target is T1, ERK1. The experiment in a line: ERK1 phosphorylation ex vivo in pig brain tissues. The class given is biochemical. On the set-up: host or cells: recombinant protein added to pig brain tissue preparations. To be noted: 3×10^-9 M. An excerpt:
(§3) The various brain structures are isolated, treated and suspended in a medium without phosphate, after inactivation of the phosphatases of the tissues. The tissues are cleared of their own ERK and p-ERK and placed in the presence of specific recombinant forms of ERK1, ERK2, p-ERK1 and p-ERK2.
(§4) The phosphorylation capacities are studied in the presence and absence of the compound of Example 1 by means of antibodies that allow evaluation of non-phosphorylated and phosphorylated ERK1 and ERK2. • 2. Results

Data set [9] addresses T2, ERK2. Description: ERK2 phosphorylation ex vivo in pig brain tissues. On the set-up: host or cells: recombinant protein added to pig brain tissue preparations. As to conditions: 3×10^-9 M. The format is biochemical.
From the text: as §3, §4

[10] abbreviates: pig brain prefrontal cortex ex vivo.

T2 sequence (P28482 whole entry, species assumed): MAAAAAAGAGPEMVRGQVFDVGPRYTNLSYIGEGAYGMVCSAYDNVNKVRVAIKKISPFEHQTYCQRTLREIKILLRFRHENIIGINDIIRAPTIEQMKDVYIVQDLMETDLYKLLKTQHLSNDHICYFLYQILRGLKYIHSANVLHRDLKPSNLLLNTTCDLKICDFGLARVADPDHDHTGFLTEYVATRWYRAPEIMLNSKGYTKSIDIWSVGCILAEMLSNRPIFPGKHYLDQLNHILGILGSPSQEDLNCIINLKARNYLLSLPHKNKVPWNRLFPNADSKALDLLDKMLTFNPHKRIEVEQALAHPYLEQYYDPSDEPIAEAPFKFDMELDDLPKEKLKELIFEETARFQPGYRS
T1 sequence (P27361 whole entry, species assumed): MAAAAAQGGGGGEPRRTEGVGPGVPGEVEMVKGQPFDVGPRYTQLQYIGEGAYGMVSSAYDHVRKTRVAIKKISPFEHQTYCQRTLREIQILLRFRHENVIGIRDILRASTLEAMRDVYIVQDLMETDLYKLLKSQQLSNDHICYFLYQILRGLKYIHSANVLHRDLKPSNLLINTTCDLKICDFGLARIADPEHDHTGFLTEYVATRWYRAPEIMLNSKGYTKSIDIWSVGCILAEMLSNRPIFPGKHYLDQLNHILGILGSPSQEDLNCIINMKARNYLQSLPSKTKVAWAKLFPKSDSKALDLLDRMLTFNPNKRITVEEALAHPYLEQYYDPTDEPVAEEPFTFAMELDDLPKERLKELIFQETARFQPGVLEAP

On to `O=C(Nc1cccnc1)Nn1ccc2ccccc21` [Example 1, N-(1H-indol-1-yl)-N′-(3-pyridyl)urea], for which, in data set [1], the “amount of TH in LC section 1, relative to the mean value of the control group” value turned out to be 66%; the “amount of TH in LC section 2, relative to the mean value of the control group” value was 85%; the “amount of TH in LC section 3, relative to the mean value of the control group” value is recorded as 74%; the “amount of TH in LC section 4, relative to the mean value of the control group” value was 64%. For the same compound, in [1], the “amount of TH in LC section 5, relative to the mean value of the control group” value stood at 45%; the “amount of TH in LC section 6, relative to the mean value of the control group” value worked out at 40%; the “amount of TH in LC section 7, relative to the mean value of the control group” value was found to be 8%; the “amount of TH in LC section 8, relative to the mean value of the control group” value is 2%. In addition, the “% metabolic stability predicted using hepatic microsomes, Mouse” value (“% metabolic stability predicted … Mouse” for short) in data set [2] is listed as 78%. In addition, the “% metabolic stability predicted using hepatic microsomes, Rat” value (from here on “% metabolic stability predicted … Rat”) in data set [3] is reported as 78%. In data set [4], the “% metabolic stability predicted using hepatic microsomes, Human” value (“% metabolic stability predicted … Human” below) is 72%. In data set [5], the “degree of crossing of the BBB (category)” value was “high”. Also, the “binding to ERK1” value in [6] (non-phosphorylated recombinant ERK1 on chip, different concentrations) is given as “binds strongly”. The “binding to ERK1 when the corresponding phosphorylated ERK is added to the medium” value in data set [6] (p-ERK1 added to the medium) is “inhibited”. Also, in [7] (non-phosphorylated recombinant ERK2 on chip, different concentrations), the “binding to ERK2” value is “binds strongly”. For the same compound, the “binding to ERK2 when the corresponding phosphorylated ERK is added to the medium” value in data set [7] (p-ERK2 added to the medium) is listed as “inhibited”. Also, the “phosphorylation of ERK1 in the hippocampus” value in [8] (pig brain hippocampus ex vivo) is listed as “increases”. In addition, in data set [8] (setting [10]), the “phosphorylation of ERK1 in the prefrontal cortex” value was “increases”. Further, the “phosphorylation of ERK2 in the hippocampus” value in [9] (pig brain hippocampus ex vivo) was “increases”. For the same compound, in data set [9] (setting [10]), the “phosphorylation of ERK2 in the prefrontal cortex” value is listed as “increases”. Moreover, the “phosphorylation of ERK2 in the striatum” value in data set [9] (pig brain striatum ex vivo) was “increases”.

Consider `O=C(Nc1cccnc1)NN1CCc2ccccc21` [Example 2, N-(2,3-dihydro-1H-indol-1-yl)-N′-(3-pyridyl)urea], for which, in [1], the “amount of TH in LC section 1, relative to the mean value of the control group” value was 63%; the “amount of TH in LC section 2, relative to the mean value of the control group” value was determined as 77%; the “amount of TH in LC section 3, relative to the mean value of the control group” value was found to be 64%; the “amount of TH in LC section 4, relative to the mean value of the control group” value is listed as 57%. Moreover, in data set [1], the “amount of TH in LC section 5, relative to the mean value of the control group” value is given as 34%; the “amount of TH in LC section 6, relative to the mean value of the control group” value stood at 15%; the “amount of TH in LC section 7, relative to the mean value of the control group” value was 8%; the “amount of TH in LC section 8, relative to the mean value of the control group” value is given as 2%. In addition, in data set [2], the “% metabolic stability predicted … Mouse” value is listed as 85%. The “% metabolic stability predicted … Rat” value in [3] is reported as 55%. In addition, the “% metabolic stability predicted … Human” value in [4] is reported as 98%.

On to `O=C(Nc1ccncc1)Nn1ccc2ccccc21` [Example 6, N-(1H-indol-1-yl)-N′-(4-pyridyl)urea], for which, in [1], the “amount of TH in LC section 1, relative to the mean value of the control group” value stood at 65%; the “amount of TH in LC section 2, relative to the mean value of the control group” value amounted to 81%; the “amount of TH in LC section 3, relative to the mean value of the control group” value is 59%; the “amount of TH in LC section 4, relative to the mean value of the control group” value came out at 33%. Besides, in data set [1], the “amount of TH in LC section 5, relative to the mean value of the control group” value is on record as 20%; the “amount of TH in LC section 6, relative to the mean value of the control group” value stood at 13%; the “amount of TH in LC section 7, relative to the mean value of the control group” value amounted to 8%; the “amount of TH in LC section 8, relative to the mean value of the control group” value turned out to be 2%. The “% metabolic stability predicted … Mouse” value in data set [2] is reported as 77%. In addition, the “% metabolic stability predicted … Rat” value in data set [3] is on record as 73%. Also, in data set [4], the “% metabolic stability predicted … Human” value is 77%.

`O=C(Nc1ccncc1)Nn1ccc2cc(Cl)ccc21` [Example 13, N-(5-chloro-1H-indol-1-yl)-N′-(4-pyridyl)urea]: the “% metabolic stability predicted … Mouse” value in data set [2] is reported as 84%. The “% metabolic stability predicted … Rat” value in data set [3] is 89%. For the same compound, the “% metabolic stability predicted … Human” value in [4] is on record as 82%.

On to `O=C(NCc1ccccn1)Nn1ccc2ccccc21` [Example 24, N-(1H-indol-1-yl)-N′-(2-pyridylmethyl)urea], for which, in [1], the “amount of TH in LC section 1, relative to the mean value of the control group” value turned out to be 74%; the “amount of TH in LC section 2, relative to the mean value of the control group” value is 78%; the “amount of TH in LC section 3, relative to the mean value of the control group” value stood at 68%; the “amount of TH in LC section 4, relative to the mean value of the control group” value is 45%. In [1], the “amount of TH in LC section 5, relative to the mean value of the control group” value is 29%; the “amount of TH in LC section 6, relative to the mean value of the control group” value came out at 19%; the “amount of TH in LC section 7, relative to the mean value of the control group” value was 5%; the “amount of TH in LC section 8, relative to the mean value of the control group” value is listed as 7%. Also, the “% metabolic stability predicted … Mouse” value in data set [2] is 72%. Moreover, in [3], the “% metabolic stability predicted … Rat” value is reported as 69%. Moreover, the “% metabolic stability predicted … Human” value in data set [4] is listed as 67%.
